According to ChEMBL document CHEMBL1201862, “PubChem BioAssay data set” (2004):
Activity calls are given as the source filed them.

Columns and labels:
A-375 = experiment: MITF: Counter assay: A375 proliferation Measured in Cell-Based System Using Plate Reader - 2084-03_Inhibitor_Dose_DryPowder_Activity. [Related pubchem assays (depositor defined):AID488944]; format: functional; conditions: Homo sapiens
Vero = experiment: viability of Vero cells under compound – cytotoxicity control for flavivirus capping enzyme inhibitors (AID 588742); format: functional; conditions: Chlorocebus sabaeus
[1] = target: T1, Histone-lysine N-methyltransferase NSD2 (Homo sapiens, UniProt O96028); format: biochemical
T1 sequence (O96028 whole entry): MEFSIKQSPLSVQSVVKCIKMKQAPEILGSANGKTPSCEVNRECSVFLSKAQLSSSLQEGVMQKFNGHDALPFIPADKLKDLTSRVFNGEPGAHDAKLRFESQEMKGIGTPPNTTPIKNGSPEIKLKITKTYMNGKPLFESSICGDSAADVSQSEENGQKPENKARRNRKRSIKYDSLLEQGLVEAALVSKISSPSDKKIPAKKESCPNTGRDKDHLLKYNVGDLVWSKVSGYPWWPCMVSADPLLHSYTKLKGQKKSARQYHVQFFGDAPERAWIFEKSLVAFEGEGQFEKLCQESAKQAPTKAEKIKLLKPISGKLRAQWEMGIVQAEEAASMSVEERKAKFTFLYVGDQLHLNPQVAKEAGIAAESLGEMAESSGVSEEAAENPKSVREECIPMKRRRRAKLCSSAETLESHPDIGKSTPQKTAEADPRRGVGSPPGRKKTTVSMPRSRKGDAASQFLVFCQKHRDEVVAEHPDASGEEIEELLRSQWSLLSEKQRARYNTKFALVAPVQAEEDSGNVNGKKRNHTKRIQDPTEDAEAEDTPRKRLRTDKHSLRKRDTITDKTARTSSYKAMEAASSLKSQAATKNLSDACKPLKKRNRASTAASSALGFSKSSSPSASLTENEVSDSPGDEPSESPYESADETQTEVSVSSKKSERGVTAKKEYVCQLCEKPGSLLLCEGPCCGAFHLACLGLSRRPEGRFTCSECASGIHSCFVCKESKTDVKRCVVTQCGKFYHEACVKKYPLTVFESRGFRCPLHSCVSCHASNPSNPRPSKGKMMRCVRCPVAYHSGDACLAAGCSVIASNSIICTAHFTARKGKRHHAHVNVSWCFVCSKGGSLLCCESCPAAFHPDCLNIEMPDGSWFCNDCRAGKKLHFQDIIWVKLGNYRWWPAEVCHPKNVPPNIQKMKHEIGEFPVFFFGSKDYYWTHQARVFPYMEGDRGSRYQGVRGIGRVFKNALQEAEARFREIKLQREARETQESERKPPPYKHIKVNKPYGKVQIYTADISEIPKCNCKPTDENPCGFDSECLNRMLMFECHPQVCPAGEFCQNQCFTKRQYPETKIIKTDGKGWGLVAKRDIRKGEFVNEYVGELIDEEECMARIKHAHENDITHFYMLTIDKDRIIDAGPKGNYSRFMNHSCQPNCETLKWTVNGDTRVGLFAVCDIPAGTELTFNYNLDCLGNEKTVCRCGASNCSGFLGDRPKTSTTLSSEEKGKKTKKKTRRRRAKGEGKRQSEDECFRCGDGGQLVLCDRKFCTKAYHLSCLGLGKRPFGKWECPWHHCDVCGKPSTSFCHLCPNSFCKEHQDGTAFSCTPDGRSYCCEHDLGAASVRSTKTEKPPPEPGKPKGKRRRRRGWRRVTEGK

[2] = Intein inhibitors as potential Tuberculosis drugs, a cytotoxicity screen. [Related pubchem assays (depositor defined):AID2221, AID2223, AID434968, AID435010, AID449749, AID449750, AID489010]; format: functional
[3] = Counterscreen for AddAB inhibitors: absorbance-based bacterial cell-based high throughput dose response assay for inhibitors of bacterial viability. [Related pubchem assays (depositor defined):AID435030, AID449728, AID449731, AID488942, AID488955, AID488956]; format: functional
Nonstructural protein 1 = Nonstructural protein 1 (Influenza A virus, UniProt Q194T2); format: functional, Influenza A virus (A/California/07/2009(H1N1))
Chain of Nonstructural protein 1 (Q194T2 whole entry): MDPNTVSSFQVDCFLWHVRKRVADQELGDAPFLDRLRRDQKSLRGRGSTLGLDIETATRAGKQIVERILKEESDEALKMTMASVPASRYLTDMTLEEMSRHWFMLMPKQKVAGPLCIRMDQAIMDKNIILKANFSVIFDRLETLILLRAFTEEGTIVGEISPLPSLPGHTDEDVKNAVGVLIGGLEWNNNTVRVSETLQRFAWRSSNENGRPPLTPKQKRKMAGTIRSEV

[4] = HEK-293T viability loss after treatment – luminescence, T-cell screen hits, cytotoxicity control for TCR NF-kB inhibitor project, dose response (AID 489026); format: functional, cell-based;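 further: cells exposed to compound about 14 hours before the viability readout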
cells = format: functional, cell-based
[5] = NIH3T3 cell viability loss – ATP luminescence, mouse fibroblasts, counter-screen, dose response (AID 2010); format: functional, cell-based;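 further: cells exposed to compound for about 90 hours before reading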
[6] = reduction of Shn3 3'UTR-driven luciferase in osteoblasts – cell-based, Clone20 osteoblasts, firefly luciferase, cherry-picked, dose response (AID 624132); format: functional;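 further: firefly luciferase luminescence from reporter carrying the Shn3 3'UTR in osteoblasts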
Activated CDC42 kinase 1 = Activated CDC42 kinase 1 (Homo sapiens, UniProt Q07912); experiment: Navigating the Kinome. Panel member name: ACK1; format: functional
Aurora kinase A = Aurora kinase A (Homo sapiens, UniProt O14965); format: functional;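 further: value from the Navigating the Kinome kinase panel profiling, panel entry STK6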
Activin receptor type-1 = Activin receptor type-1 (Homo sapiens, UniProt Q04771); experiment: Navigating the Kinome. Panel member name: ACVR1; format: functional
[7] = target: Mitogen-activated protein kinase kinase kinase kinase 2 (Homo sapiens, UniProt Q12851); format: functional;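 further: measured as one member of a kinome-wide kinase panel, with MAP4K2 as the panel entry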
[8] = target: MAP/microtubule affinity-regulating kinase 3 (Homo sapiens, UniProt P27448); format: functional;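 further: MARK3 affinity measured as one member of a kinome panel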
[9] = target: Tyrosine-protein kinase JAK2 (Homo sapiens, UniProt O60674); format: functional;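 further: JAK2 tested as one member of a kinase panel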
[10] = target: Hepatocyte growth factor receptor (Homo sapiens, UniProt P08581); format: functional;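 further: kinase panel profiling across the kinome, with MET as the panel member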
Chain of Hepatocyte growth factor receptor (P08581 whole entry): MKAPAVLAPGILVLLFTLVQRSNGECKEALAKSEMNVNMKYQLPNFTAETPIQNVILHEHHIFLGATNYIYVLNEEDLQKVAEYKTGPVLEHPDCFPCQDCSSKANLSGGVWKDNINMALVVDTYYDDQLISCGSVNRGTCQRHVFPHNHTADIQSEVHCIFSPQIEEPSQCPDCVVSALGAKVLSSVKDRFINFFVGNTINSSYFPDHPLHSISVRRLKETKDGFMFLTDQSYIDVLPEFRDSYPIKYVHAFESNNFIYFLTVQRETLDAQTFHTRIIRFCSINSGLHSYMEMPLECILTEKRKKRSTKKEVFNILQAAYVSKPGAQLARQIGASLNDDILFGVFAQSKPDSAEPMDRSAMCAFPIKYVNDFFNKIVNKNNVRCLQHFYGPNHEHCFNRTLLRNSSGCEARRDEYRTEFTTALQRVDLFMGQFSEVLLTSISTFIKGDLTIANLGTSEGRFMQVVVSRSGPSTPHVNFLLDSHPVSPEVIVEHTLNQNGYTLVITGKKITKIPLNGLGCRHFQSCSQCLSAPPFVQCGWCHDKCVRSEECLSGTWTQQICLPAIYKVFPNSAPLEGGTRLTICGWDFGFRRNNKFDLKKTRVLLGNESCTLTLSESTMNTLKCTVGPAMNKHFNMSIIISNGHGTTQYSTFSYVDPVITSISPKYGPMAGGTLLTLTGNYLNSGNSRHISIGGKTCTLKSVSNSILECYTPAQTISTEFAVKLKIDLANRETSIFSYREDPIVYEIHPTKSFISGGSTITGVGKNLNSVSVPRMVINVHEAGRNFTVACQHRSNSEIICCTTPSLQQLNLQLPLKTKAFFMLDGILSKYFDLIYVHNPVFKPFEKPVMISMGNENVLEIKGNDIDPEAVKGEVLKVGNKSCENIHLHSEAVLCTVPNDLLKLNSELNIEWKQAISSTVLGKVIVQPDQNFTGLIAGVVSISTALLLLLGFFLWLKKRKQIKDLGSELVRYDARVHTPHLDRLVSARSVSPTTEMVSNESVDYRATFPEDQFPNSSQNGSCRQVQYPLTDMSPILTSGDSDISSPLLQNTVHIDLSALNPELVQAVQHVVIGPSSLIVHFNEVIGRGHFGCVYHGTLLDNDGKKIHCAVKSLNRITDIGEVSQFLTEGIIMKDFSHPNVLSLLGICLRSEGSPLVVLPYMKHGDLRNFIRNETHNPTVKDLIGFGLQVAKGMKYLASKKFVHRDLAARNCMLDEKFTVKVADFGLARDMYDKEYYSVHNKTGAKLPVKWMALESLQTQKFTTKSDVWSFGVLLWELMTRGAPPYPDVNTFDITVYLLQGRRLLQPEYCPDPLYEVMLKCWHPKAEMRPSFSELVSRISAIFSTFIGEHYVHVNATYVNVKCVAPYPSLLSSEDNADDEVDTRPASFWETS

[11] = target: Mitogen-activated protein kinase kinase kinase kinase 4 (Homo sapiens, UniProt O95819); format: functional
Chain of Mitogen-activated protein kinase kinase kinase kinase 4 (O95819 whole entry): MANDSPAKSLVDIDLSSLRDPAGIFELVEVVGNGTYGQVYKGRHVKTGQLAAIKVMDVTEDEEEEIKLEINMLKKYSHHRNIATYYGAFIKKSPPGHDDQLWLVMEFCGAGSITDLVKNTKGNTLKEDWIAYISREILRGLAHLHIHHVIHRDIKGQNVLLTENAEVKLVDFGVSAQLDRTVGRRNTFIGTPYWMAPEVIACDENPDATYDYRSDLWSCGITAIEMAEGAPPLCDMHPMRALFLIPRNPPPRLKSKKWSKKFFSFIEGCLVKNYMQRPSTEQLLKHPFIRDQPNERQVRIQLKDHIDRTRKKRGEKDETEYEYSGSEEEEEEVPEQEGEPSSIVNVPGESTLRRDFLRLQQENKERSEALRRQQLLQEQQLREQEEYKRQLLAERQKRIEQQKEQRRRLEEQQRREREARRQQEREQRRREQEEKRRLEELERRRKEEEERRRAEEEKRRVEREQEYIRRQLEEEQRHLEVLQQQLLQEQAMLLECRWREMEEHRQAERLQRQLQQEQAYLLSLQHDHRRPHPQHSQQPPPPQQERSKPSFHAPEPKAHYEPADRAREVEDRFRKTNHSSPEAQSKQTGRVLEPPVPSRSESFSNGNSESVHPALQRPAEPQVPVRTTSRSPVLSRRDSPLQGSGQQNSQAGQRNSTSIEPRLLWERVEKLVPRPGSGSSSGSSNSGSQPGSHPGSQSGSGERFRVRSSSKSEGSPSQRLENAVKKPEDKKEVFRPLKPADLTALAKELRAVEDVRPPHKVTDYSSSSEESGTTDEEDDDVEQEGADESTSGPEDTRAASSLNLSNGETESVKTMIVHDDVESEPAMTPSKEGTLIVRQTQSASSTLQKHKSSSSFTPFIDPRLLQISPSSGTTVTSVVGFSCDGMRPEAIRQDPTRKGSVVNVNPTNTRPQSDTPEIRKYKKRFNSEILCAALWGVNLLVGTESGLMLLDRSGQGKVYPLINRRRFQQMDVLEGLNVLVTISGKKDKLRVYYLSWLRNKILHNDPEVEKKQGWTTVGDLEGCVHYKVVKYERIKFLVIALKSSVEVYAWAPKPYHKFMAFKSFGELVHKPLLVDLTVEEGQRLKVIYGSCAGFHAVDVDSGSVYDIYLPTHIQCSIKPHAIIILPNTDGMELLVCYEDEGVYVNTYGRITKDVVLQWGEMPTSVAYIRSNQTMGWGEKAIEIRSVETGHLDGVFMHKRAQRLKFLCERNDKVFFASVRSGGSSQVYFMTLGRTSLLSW

[12] = target: cAMP-dependent protein kinase catalytic subunit alpha (Homo sapiens, UniProt P17612); format: functional
[13] = target: Mitogen-activated protein kinase 14 (Homo sapiens, UniProt Q16539); format: functional;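 further: part of a kinome-wide panel, MAPK14 entry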
[14] = target: Serine/threonine-protein kinase PAK 4 (Homo sapiens, UniProt O96013); format: functional;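 further: value obtained within a kinome profiling panel in which PAK4 was one of the panel members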
[15] = target: Inhibitor of nuclear factor kappa-B kinase subunit epsilon (Homo sapiens, UniProt Q14164); experiment: Navigating the Kinome. Panel member name: IKBKE; format: functional
[16] = target: Vascular endothelial growth factor receptor 1 (Homo sapiens, UniProt P17948); format: functional;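 further: measured within a kinome-wide profiling panel, FLT1 as the panel member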
Chain of Vascular endothelial growth factor receptor 1 (P17948 whole entry): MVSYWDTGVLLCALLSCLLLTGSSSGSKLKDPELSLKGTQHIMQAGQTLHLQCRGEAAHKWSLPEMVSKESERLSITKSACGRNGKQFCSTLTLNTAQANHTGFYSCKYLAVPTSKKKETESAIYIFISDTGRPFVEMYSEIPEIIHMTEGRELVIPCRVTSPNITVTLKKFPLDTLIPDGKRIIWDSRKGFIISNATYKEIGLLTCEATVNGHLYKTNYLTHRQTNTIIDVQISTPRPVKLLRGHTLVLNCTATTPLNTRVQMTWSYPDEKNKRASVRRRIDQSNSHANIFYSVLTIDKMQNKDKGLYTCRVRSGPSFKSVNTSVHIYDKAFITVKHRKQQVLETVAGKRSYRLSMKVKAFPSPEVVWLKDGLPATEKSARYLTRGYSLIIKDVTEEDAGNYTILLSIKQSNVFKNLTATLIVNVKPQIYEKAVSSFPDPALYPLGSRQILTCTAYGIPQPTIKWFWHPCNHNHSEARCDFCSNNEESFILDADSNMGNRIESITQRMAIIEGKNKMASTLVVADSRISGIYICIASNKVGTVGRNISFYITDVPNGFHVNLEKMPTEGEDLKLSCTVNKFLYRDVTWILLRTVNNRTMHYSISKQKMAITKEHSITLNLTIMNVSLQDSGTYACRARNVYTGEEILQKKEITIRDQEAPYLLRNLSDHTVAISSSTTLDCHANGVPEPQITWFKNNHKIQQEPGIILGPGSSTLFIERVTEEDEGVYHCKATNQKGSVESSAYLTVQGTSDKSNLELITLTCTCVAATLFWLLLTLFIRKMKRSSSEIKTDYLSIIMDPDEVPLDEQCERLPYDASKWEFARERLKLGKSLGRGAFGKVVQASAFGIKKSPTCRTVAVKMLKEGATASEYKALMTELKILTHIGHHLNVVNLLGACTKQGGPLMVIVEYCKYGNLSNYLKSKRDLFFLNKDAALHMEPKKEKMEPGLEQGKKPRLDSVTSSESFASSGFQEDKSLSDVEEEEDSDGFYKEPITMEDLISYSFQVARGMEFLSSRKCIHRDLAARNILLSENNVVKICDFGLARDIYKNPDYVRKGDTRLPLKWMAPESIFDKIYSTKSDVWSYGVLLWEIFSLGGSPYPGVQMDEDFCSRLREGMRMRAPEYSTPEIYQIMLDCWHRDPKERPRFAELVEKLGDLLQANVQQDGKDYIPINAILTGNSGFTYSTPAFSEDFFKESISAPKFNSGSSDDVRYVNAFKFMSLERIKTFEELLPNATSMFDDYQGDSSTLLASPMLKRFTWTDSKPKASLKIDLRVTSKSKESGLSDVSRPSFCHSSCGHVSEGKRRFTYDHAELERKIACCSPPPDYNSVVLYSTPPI

[17] = target: Rho-associated protein kinase 1 (Homo sapiens, UniProt Q13464); format: functional;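 further: measured within a broad kinome-wide panel profiling many kinases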
[18] = target: Dual specificity tyrosine-phosphorylation-regulated kinase 1B (Homo sapiens, UniProt Q9Y463); experiment: Navigating the Kinome. Panel member name: DYRK1B; format: functional
Chain of Dual specificity tyrosine-phosphorylation-regulated kinase 1B (Q9Y463 whole entry): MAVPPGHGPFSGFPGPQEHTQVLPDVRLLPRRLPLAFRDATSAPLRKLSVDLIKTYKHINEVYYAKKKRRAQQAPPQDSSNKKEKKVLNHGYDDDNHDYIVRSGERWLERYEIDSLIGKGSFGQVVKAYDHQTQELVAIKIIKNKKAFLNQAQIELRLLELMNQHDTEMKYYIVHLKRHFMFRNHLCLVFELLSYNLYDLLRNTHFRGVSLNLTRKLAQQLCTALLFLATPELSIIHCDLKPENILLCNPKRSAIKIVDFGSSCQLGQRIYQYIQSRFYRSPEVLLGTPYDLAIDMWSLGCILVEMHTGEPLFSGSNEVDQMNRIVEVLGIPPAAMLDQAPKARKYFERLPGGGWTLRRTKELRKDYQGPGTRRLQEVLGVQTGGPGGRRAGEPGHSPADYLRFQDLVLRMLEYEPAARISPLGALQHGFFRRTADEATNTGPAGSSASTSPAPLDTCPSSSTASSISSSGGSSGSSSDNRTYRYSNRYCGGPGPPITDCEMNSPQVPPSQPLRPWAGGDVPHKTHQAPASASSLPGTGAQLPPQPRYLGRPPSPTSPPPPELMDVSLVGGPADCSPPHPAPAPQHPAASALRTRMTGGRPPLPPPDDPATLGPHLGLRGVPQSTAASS

[19] = target: Glycogen synthase kinase-3 beta (Homo sapiens, UniProt P49841); format: functional;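 further: value comes from a broad kinome profiling panel, with GSK3B as the panel member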

In the case of CCc1cc[n+](C2=C([N-]S(=O)(=O)c3cccs3)C(=O)c3ccccc3C2=O)cc1, the AC50 (A-375) is reported as 35400 nM (active).

With O=C(NC1=C(NC2CCS(=O)(=O)C2)C(=O)c2ccccc2C1=O)c1ccccc1 (stereo unspecified) the CC50 (Vero) was 7480 nM (active), the AC50 [1] was > 20000 nM (inactive) and the CC50 [2] was 5150 nM (active).

With CCCC(=O)NC(c1ccc(N(C)C)cc1)c1ccc2cccnc2c1O (stereo unspecified) the IC50 [3] was > 119000 nM (inactive), the IC50 (Nonstructural protein 1) was 17700 nM (active) and the IC50 [4] was > 80000 nM (inactive). The EC50 (cells) was > 350000 nM (not active), the EC50 [5] was 729 nM (active) and the AC50 [6] was 916 nM (active).

With O=C1NC(=O)C(c2c[nH]c3ccccc23)=C1c1nc(N2CCNCC2)nc2ccccc12 the Ki (Activated CDC42 kinase 1) was > 3980 nM (inactive), the Ki (Aurora kinase A) was > 1580 nM (inactive) and the Ki (Activin receptor type-1) was > 3980 nM (inactive). The Ki [7] was 1000 nM (active), the Ki [8] was 398 nM (active) and the Ki [9] was > 2510 nM (inactive). For the same molecule, the Ki [10] was 398 nM (active), the Ki [11] was 200 nM (active) and the Ki [12] was 31.6 nM (active). The Ki [13] was > 3980 nM (inactive), the Ki [14] was 2000 nM (active) and the Ki [15] was > 3160 nM (inactive). The Ki [16] was > 2510 nM (inactive), the Ki [17] was > 2000 nM (inactive) and the Ki [18] was > 2000 nM (inactive). The Ki [19] was > 3980 nM (inactive).
